These results are taken from patent US20220185767A1, “NOVEL TERNARY MOLECULAR COMPLEX OF TAMIBAROTENE FOR CANCER STEM CELLS TREATMENT” (TRANSGENEX NANOBIOTECH, INC., priority 2019, published 2022).

One series concerns SK-ES-1. Description: Monolayer Cell Culture Assay, IC50. The settings on record: SK-ES-1, Sarcoma. Format: cell-based. An excerpt: (§1) All IC50 studies' methodology and materials are described in full details in international publication number WO 2019/160806 dated Aug. 22, 2019, but with substituting the binary molecular complex with the ternary molecular complex of the present invention.

A further series has as its system PANC-1. Description: Monolayer Cell Culture Assay, IC50. The conditions noted are these: PANC-1, Pancreas. In kind it is cell-based.
Source text: as §1

Another series has as its system PC-3. Description: Monolayer Cell Culture Assay, IC50. The settings on record: PC-3, Prostate. In kind it is cell-based.
Source text: as §1

A further series concerns U-2 OS. Description: Monolayer Cell Culture Assay, IC50. Format: cell-based. The conditions noted are these: Sarcoma.
Source text: as §1

For another series, the system named is SK-Mel-5. Put plainly: Monolayer Cell Culture Assay, IC50. Format: cell-based. The settings on record: SK-Mel-5, Skin.
Source text: as §1

In a further series the test system is A549. Description: Monolayer Cell Culture Assay, IC50. Format: cell-based. The settings on record: A549, Lung.
Source text: as §1

The conditions of series [1]: cited from earlier work.
The next series relates to CT26. Put plainly: Monolayer Cell Culture Assay, IC50. In kind it is cell-based. The settings on record: Mus musculus, CT26, Colon.
Source text: as §1

The test system of another series is HCT116. Put plainly: Monolayer Cell Culture Assay, IC50. The settings on record: Homo sapiens, HCT-116, HCT116, Colon. In kind it is cell-based.
Source text: as §1

The test system of another series is MC38. Put plainly: Monolayer Cell Culture Assay, IC50. Format: cell-based. The conditions noted are these: Mus musculus, MC-38, MC38, Colon.
Source text: as §1

The next series deals with HT29. Description: Monolayer Cell Culture Assay, IC50. The conditions noted are these: Homo sapiens, HT-29, HT29, Colon. In kind it is cell-based.
Source text: as §1

A further series concerns lung cancer cells. Put plainly: Sphere assay. Format: cell-based. The source says: All sphere assay studies methodology and materials are described in full details in international publication number WO 2019/160806 dated Aug. 22, 2019, but with substituting the binary molecular complex with the ternary molecular complex of the present invention.
Series [2] is classed as physicochemical. As to the method:
30.0 mg of tamibarotene, 11.4 mg of L-malic acid and 43.5 mg of telmisartan (1:1:1 molar ratio) were stirred as an open slurry in 1 mL of acetone in a glass vial. After 16-24 hours of stirring mixture was further dried at room temperature until, a completely dried mixture is obtained. The resulted material was stored in a screw cap vial and characterized by PXRD and IR. PXRD comparison of binary tamibarotene-L-malic acid complex (TN-513) with tamibarotene-L-malic acid-telmisartan (TN-513-T) also confirmed the successful synthesis of a ternary complex. Synthesis of ternary TN-513-T was scaled up to 150 mg of tamibarotene and stability was tested on accelerated conditions (75% humidity at 40° C.) for 1 and three months.

The mark [3] stands for this setting: average of two tests, read-out: IC50 Test AVG Avg.
[4] abbreviates: Homo sapiens, average of two tests, read-out: IC50 Test AVG Avg.
Setting [5] is: Homo sapiens, read-out: IC50 Test (II) Avg.
Setting [6] is: Homo sapiens, read-out: IC50 Test(I) Avg.

Like-named read-outs stand apart in the source and are kept apart here. Some results are limits rather than exact numbers.

With `CC1(C)CCC(C)(C)c2cc(NC(=O)c3ccc(C(=O)O)cc3)ccc21.CCOc1nc2cccc(C(=O)O)c2n1Cc1ccc(-c2ccccc2-c2nn[nH]n2)cc1` [TN513:CS, Tamibarotene:L-malic acid:candesartan], the IC50 in the series with SK-ES-1 (setting [3]) was determined as 31.4 µM; with SK-ES-1 (read-out: IC50 Test (II) Avg), 33.6 µM; with SK-ES-1 (read-out: IC50 Test(I) Avg), 29.2 µM; in the series on PANC-1 (setting [3]) it was 70.6 µM; in the series with PANC-1 (read-out: IC50 Test (II) Avg), 88 µM; with PANC-1 (read-out: IC50 Test(I) Avg), 53.3 µM. The IC50 was determined as 106 µM with PC-3 (setting [3]); 111 µM in the series on PC-3 (read-out: IC50 Test (II) Avg); 102 µM with PC-3 (read-out: IC50 Test(I) Avg); 42.8 µM with U-2 OS (setting [3]); 45.8 µM in the series with U-2 OS (read-out: IC50 Test (II) Avg); 39.9 µM with U-2 OS (read-out: IC50 Test(I) Avg). The IC50 came out at 46.1 µM in the series with SK-Mel-5 (setting [3]); 42.6 µM in the series with SK-Mel-5 (read-out: IC50 Test (II) Avg); 49.5 µM with SK-Mel-5 (read-out: IC50 Test(I) Avg); 52.4 µM in the series with A549 (setting [3]); 62.2 µM in the series with A549 (read-out: IC50 Test (II) Avg); 42.7 µM in the series on A549 (read-out: IC50 Test(I) Avg).

Regarding `CC1(C)CCC(C)(C)c2cc(NC(=O)c3ccc(C(=O)O)cc3)ccc21` [TAM, 4-[(5,5,8,8-tetramethyl-5,6,7,8-tetrahydronaphthalen-2-yl)carbamoyl]benzoic acid, reference compound], the “solubility in organic solvents” value in series [1] (DMF, methanol, ethanol, DMSO, and other organic solvents) is recorded as “soluble”. In addition, the “solubility in acetonitrile, water, and various other buffer solutions” value in [1] (acetonitrile, water, buffer solutions pH3~7 (CN 101200435 B)) is “insoluble”. The IC50 in the series on CT26 (setting [3]) was 87.3 µM; in the series on CT26 (read-out: IC50 Test (I) Avg), 61.9 µM; with CT26 (read-out: IC50 Test (II) Avg) it was 94.8 µM; in the series on SK-ES-1 (Homo sapiens, SK-ES1, average of two tests, read-out: IC50 Test AVG Avg), above 100 µM; in the series on SK-ES-1 (Homo sapiens, SK-ES1, read-out: IC50 Test (II) Avg), above 100 µM; in the series on SK-ES-1 (Homo sapiens, SK-ES1, read-out: IC50 Test(I) Avg), above 100 µM. The IC50 is above 100 µM with PANC-1 (setting [4]); above 100 µM with PANC-1 (setting [5]); above 100 µM in the series with PANC-1 (setting [6]); 60.4 µM with HCT116 (setting [3]); 49.6 µM in the series with HCT116 (read-out: IC50 Test (I) Avg); 71.3 µM with HCT116 (read-out: IC50 Test (II) Avg). Also, the IC50 is above 100 µM in the series with PC-3 (setting [4]); above 100 µM in the series with PC-3 (setting [5]); above 100 µM in the series on PC-3 (setting [6]); above 100 µM with U-2 OS (Homo sapiens, U2OS, average of two tests, read-out: IC50 Test AVG Avg); above 100 µM in the series on U-2 OS (Homo sapiens, U2OS, read-out: IC50 Test (II) Avg); above 100 µM in the series with U-2 OS (Homo sapiens, U2OS, read-out: IC50 Test(I) Avg). Further, the IC50 in the series with MC38 (setting [3]) was 101 µM; in the series on MC38 (read-out: IC50 Test (I) Avg) it was 65.7 µM; with MC38 (read-out: IC50 Test (II) Avg), 137 µM; in the series with SK-Mel-5 (setting [4]) it was above 100 µM; in the series on SK-Mel-5 (setting [5]), above 100 µM; in the series with SK-Mel-5 (setting [6]), above 100 µM. In addition, the IC50 in the series with A549 (setting [4]) worked out at 60.3 µM; in the series on HT29 (setting [3]) it was 100 µM; in the series with HT29 (read-out: IC50 Test (I) Avg), 88.9 µM; in the series on HT29 (read-out: IC50 Test (II) Avg) it was 111 µM.

As to `CC1(C)CCC(C)(C)c2cc(NC(=O)c3ccc(C(=O)O)cc3)ccc21.CCCc1nc2c(C)cc(-c3nc4ccccc4n3C)cc2n1Cc1ccc(-c2ccccc2C(=O)O)cc1.O=C(O)C[C@H](O)C(=O)O` [TN513:TS, Tamibarotene:L-malic acid:telmisartan], in the series on lung cancer cells (FIG. 10), the “preventing sphere aggregation (sphere formation efficacy)” value is reported as “superior efficacy preventing sphere aggregation”. Moreover, the “total surface area of the cancer cell spheres” value in the series with lung cancer cells (FIG. 11) is “dramatically reducing the total surface area”. The “stability on accelerated conditions (PXRD)” value in [2] is recorded as “no change in PXRD data”. The IC50 worked out at 17.9 µM in the series with SK-ES-1 (setting [3]); 18.4 µM in the series with SK-ES-1 (read-out: IC50 Test (II) Avg); 17.4 µM in the series with SK-ES-1 (read-out: IC50 Test(I) Avg); 32.5 µM with PANC-1 (setting [3]); 40.2 µM in the series on PANC-1 (read-out: IC50 Test (II) Avg); 24.8 µM in the series on PANC-1 (read-out: IC50 Test(I) Avg). Further, the IC50 is 71.2 µM with PC-3 (setting [3]); 70.8 µM in the series on PC-3 (read-out: IC50 Test (II) Avg); 71.7 µM with PC-3 (read-out: IC50 Test(I) Avg); 12.9 µM in the series with U-2 OS (setting [3]); 14.6 µM in the series with U-2 OS (read-out: IC50 Test (II) Avg); 11.2 µM in the series with U-2 OS (read-out: IC50 Test(I) Avg). The IC50 with SK-Mel-5 (setting [3]) was found to be 20.7 µM; in the series with SK-Mel-5 (read-out: IC50 Test (II) Avg) it was 26.1 µM; in the series with SK-Mel-5 (read-out: IC50 Test(I) Avg), 15.3 µM; in the series on A549 (setting [3]) it was 16 µM; with A549 (read-out: IC50 Test (II) Avg), 19.9 µM; in the series on A549 (read-out: IC50 Test(I) Avg), 12 µM.

As for `CC1(C)CCC(C)(C)c2cc(NC(=O)c3ccc(C(=O)O)cc3)ccc21.CCCCc1nc(Cl)c(CO)n1Cc1ccc(-c2ccccc2-c2nn[nH]n2)cc1` [TN513:LS, Tamibarotene:L-malic acid:losartan], the IC50 with SK-ES-1 (setting [3]) worked out at 106 µM; in the series on SK-ES-1 (read-out: IC50 Test (II) Avg), 122 µM; with SK-ES-1 (read-out: IC50 Test(I) Avg), 90 µM; in the series on PANC-1 (setting [3]), 126 µM; with PANC-1 (read-out: IC50 Test (II) Avg) it was 149 µM; with PANC-1 (read-out: IC50 Test(I) Avg) it was 104 µM. Moreover, the IC50 with PC-3 (setting [3]) came out at 332 µM; with PC-3 (read-out: IC50 Test (II) Avg), 343 µM; in the series on PC-3 (read-out: IC50 Test(I) Avg), 322 µM; in the series with U-2 OS (setting [3]), 64.8 µM; in the series with U-2 OS (read-out: IC50 Test (II) Avg) it was 69.6 µM; in the series with U-2 OS (read-out: IC50 Test(I) Avg) it was 59.9 µM. For the same molecule, the IC50 in the series with SK-Mel-5 (setting [3]) was determined as 116 µM; with SK-Mel-5 (read-out: IC50 Test (II) Avg), 132 µM; in the series with SK-Mel-5 (read-out: IC50 Test(I) Avg), 99.9 µM; in the series on A549 (setting [3]) it was 110 µM; in the series with A549 (read-out: IC50 Test (II) Avg) it was 126 µM; in the series on A549 (read-out: IC50 Test(I) Avg), 93.8 µM.

For orientation: IC50 means the concentration that inhibits the measured activity by half.
